Laboratory results as given in patent US5026848A, “Novel generation of heteroaryloxyalkyl heterocycles with antipicornaviruses activities” (Synphar Laboratories Incorporated, priority 1988, dated 1991).
Values after ≈ are worked out from the molar mass of the structure shown. Read-outs that look alike come from different tables or passages of the source.

Columns and labels:
WI38 cells = assay: Toxicity to WI38 cells (change in morphology in / growth inhibition of 25% of the cells); type: cell-based
Rhinovirus 1A = assay: Anti-rhinovirus activity, cytopathic effect inhibition / neutral red dye uptake, type 1A; type: cell-based; details: Enterovirus, WI-38; Table I; WI38 cells, 33° C., 3-4 days; NA = Not active; read-out: MIC50 Rhinovirus 1A
Rhinovirus 1B = assay: Anti-rhinovirus activity, cytopathic effect inhibition / neutral red dye uptake, type 1B; type: cell-based; details: Enterovirus, WI-38; Table II; one of seven commonest serotypes; read-out: MIC 50 Rhinovirus Type 1B
Rhinovirus 2 = assay: Anti-rhinovirus activity, cytopathic effect inhibition / neutral red dye uptake, type 2; type: cell-based; details: Enterovirus, WI-38; Table II; one of seven commonest serotypes; read-out: MIC 50 Rhinovirus Type 2
Rhinovirus 4 = assay: Anti-rhinovirus activity, cytopathic effect inhibition / neutral red dye uptake, type 4; type: cell-based; details: Enterovirus, WI-38; Table II; one of seven commonest serotypes; read-out: MIC 50 Rhinovirus Type 4
Rhinovirus 15 = assay: Anti-rhinovirus activity, cytopathic effect inhibition / neutral red dye uptake, type 15; type: cell-based; details: Enterovirus, WI-38; Table II; one of seven commonest serotypes; read-out: MIC 50 Rhinovirus Type 15
Rhinovirus 17 = assay: Anti-rhinovirus activity, cytopathic effect inhibition / neutral red dye uptake, type 17; type: cell-based; details: Enterovirus, WI-38; Table II; read-out: MIC 50 Rhinovirus Type 17
Rhinovirus 23 = assay: Anti-rhinovirus activity, cytopathic effect inhibition / neutral red dye uptake, type 23; type: cell-based; details: Enterovirus, WI-38; Table II; read-out: MIC 50 Rhinovirus Type 23
Rhinovirus 29 = assay: Anti-rhinovirus activity, cytopathic effect inhibition / neutral red dye uptake, type 29; type: cell-based; details: Enterovirus, WI-38; Table II; one of seven commonest serotypes; read-out: MIC 50 Rhinovirus Type 29
Rhinovirus 30 = assay: Anti-rhinovirus activity, cytopathic effect inhibition / neutral red dye uptake, type 30; type: cell-based; details: Enterovirus, WI-38; Table II; read-out: MIC 50 Rhinovirus Type 30
Rhinovirus 31 = assay: Anti-rhinovirus activity, cytopathic effect inhibition / neutral red dye uptake, type 31; type: cell-based; details: Enterovirus, WI-38; Table II; one of seven commonest serotypes; read-out: MIC 50 Rhinovirus Type 31
Rhinovirus 32 = assay: Anti-rhinovirus activity, cytopathic effect inhibition / neutral red dye uptake, type 32; type: cell-based; details: Enterovirus, WI-38; Table II; read-out: MIC 50 Rhinovirus Type 32
Rhinovirus 36 = assay: Anti-rhinovirus activity, cytopathic effect inhibition / neutral red dye uptake, type 36; type: cell-based; details: Enterovirus, WI-38; Table II; read-out: MIC 50 Rhinovirus Type 36
Rhinovirus 39 = assay: Anti-rhinovirus activity, cytopathic effect inhibition / neutral red dye uptake, type 39; type: cell-based; details: Enterovirus, WI-38
Rhinovirus 44 = assay: Anti-rhinovirus activity, cytopathic effect inhibition / neutral red dye uptake, type 44; type: cell-based; details: Enterovirus, WI-38; Table II; read-out: MIC 50 Rhinovirus Type 44
Rhinovirus 49 = assay: Anti-rhinovirus activity, cytopathic effect inhibition / neutral red dye uptake, type 49; type: cell-based; details: Enterovirus, WI-38; Table II; read-out: MIC 50 Rhinovirus Type 49
Rhinovirus 53 = assay: Anti-rhinovirus activity, cytopathic effect inhibition / neutral red dye uptake, type 53; type: cell-based; details: Enterovirus, WI-38; Table II; read-out: MIC 50 Rhinovirus Type 53
Rhinovirus 56 = assay: Anti-rhinovirus activity, cytopathic effect inhibition / neutral red dye uptake, type 56; type: cell-based; details: Enterovirus, WI-38; Table II; read-out: MIC 50 Rhinovirus Type 56
Rhinovirus 63 = assay: Anti-rhinovirus activity, cytopathic effect inhibition / neutral red dye uptake, type 63; type: cell-based; details: Enterovirus, WI-38; Table II; read-out: MIC 50 Rhinovirus Type 63
Rhinovirus 86 = assay: Anti-rhinovirus activity, cytopathic effect inhibition / neutral red dye uptake, type 86; type: cell-based; details: Enterovirus, WI-38; Table II; read-out: MIC 50 Rhinovirus Type 86
Rhinovirus 88 = assay: Anti-rhinovirus activity, cytopathic effect inhibition / neutral red dye uptake, type 88; type: cell-based; details: Enterovirus, WI-38; Table II; read-out: MIC 50 Rhinovirus Type 88
Polio 1 = assay: microbe, parasite or virus in culture; type: cell-based; details: Enterovirus, read-out: MIC 50 Polio 1
Coxsacki-A9 = assay: Activity against other picornaviruses, Coxsacki-A9; type: cell-based; details: Enterovirus, read-out: MIC 50 Cox. A9
Coxsacki-A21 = assay: Activity against other picornaviruses, Coxsacki-A21; type: cell-based; details: Enterovirus, read-out: MIC 50 Cox. A21
Coxsacki-B1 = assay: Activity against other picornaviruses, Coxsacki-B1; type: cell-based; details: Enterovirus, read-out: MIC 50 Cox. B1
Coxsacki-B4 = assay: Activity against other picornaviruses, Coxsacki-B4; type: cell-based; details: Enterovirus, read-out: MIC 50 Cox. B4
Echo-7 = assay: Activity against other picornaviruses, Echo-7; type: cell-based; details: Enterovirus, read-out: MIC 50 Echo 7
Echo-11 = assay: Activity against other picornaviruses, Echo-11; type: cell-based; details: Enterovirus, read-out: MIC 50 Echo 11
Enterovirus serotypes = type: cell-based; details: for All Enterovirus Serotypes (number of serotypes active / tested): Table III, numerator, denominator 7, but 5 for compound 8
HRV-1A and HRV-39 = assay: Anti-rhinovirus activity against HRV-1A and HRV-39; details: in words
[1] = tested on: 20 serotypes of rhinovirus; assay: Anti-rhinovirus activity against a panel of 20 serotypes; details: Table II; numerator; denominator 20, but 10 for compound 8 and 6 for compound 30
[2] = Table I, concentration with change in morphology in 25% of WI38 cells
[3] = Table I, WI38 cells, 33° C., 3-4 days, read-out: MIC50 Rhinovirus 39

Row | SMILES | Toxicity (WI38 cells; [2]) | Toxicity (WI38 cells; Table II) | Toxicity (WI38 cells; Table III) | EC50 (Rhinovirus 1A) | IC50 (Rhinovirus 1B) | IC50 (Rhinovirus 2) | IC50 (Rhinovirus 4) | IC50 (Rhinovirus 15) | IC50 (Rhinovirus 17) | IC50 (Rhinovirus 23) | IC50 (Rhinovirus 29) | IC50 (Rhinovirus 30) | EC50 (Rhinovirus 31) | EC50 (Rhinovirus 32) | EC50 (Rhinovirus 36) | EC50 (Rhinovirus 39; [3]) | EC50 (Rhinovirus 44) | EC50 (Rhinovirus 49) | EC50 (Rhinovirus 53) | EC50 (Rhinovirus 56) | further results
1 | Cc1cc(CCCCCCCOc2ccc3oc4ccccc4c3c2)on1 [Compound 5] | 100 µg/mL | 100 µg/mL | 100 µg/mL | 5 µg/mL (≈ 13.8 µM) | 5 µg/mL (≈ 13.8 µM) | > 25 µg/mL | < 0.5 µg/mL | 5 µg/mL (≈ 13.8 µM) | 10 µg/mL (≈ 27.5 µM) | 5 µg/mL (≈ 13.8 µM) | 5 µg/mL (≈ 13.8 µM) | 0.5 µg/mL (≈ 1.38 µM) | 10 µg/mL (≈ 27.5 µM) | 25 µg/mL (≈ 68.8 µM) | > 25 µg/mL | 1 µg/mL (≈ 2.75 µM) | < 0.5 µg/mL | > 25 µg/mL | 10 µg/mL (≈ 27.5 µM) | 5 µg/mL (≈ 13.8 µM) | EC50 (Rhinovirus 63): 10 µg/mL (≈ 27.5 µM); EC50 (Rhinovirus 86): 0.5 µg/mL (≈ 1.38 µM); EC50 (Rhinovirus 88): 0.5 µg/mL (≈ 1.38 µM); EC50 (Polio 1): 10 µg/mL (≈ 27.5 µM); EC50 (Coxsacki-A9): 5 µg/mL (≈ 13.8 µM); IC50 (Coxsacki-A21): 5 µg/mL (≈ 13.8 µM); IC50 (Coxsacki-B1): 10 µg/mL (≈ 27.5 µM); IC50 (Coxsacki-B4): > 25 µg/mL; IC50 (Echo-7): 25 µg/mL (≈ 68.8 µM); IC50 (Echo-11): > 25 µg/mL; inhibitory activity against the members of the Entero virus family (Enterovirus serotypes): remarkable inhibitory activity; All Enterovirus Serotypes (number of serotypes active / tested) (Enterovirus serotypes): 5; inhibitory activity against HRV-1A and HRV-39 in vitro (HRV-1A and HRV-39): remarkably inhibitory activity; All Rhinovirus Serotypes (number of serotypes active / tested) [1]: 17
2 | Cc1cc(CCCCCCCOc2cc(C)nc3ccccc23)on1 [Compound 9, 5-[7-(2-methylquinolin-4-yl)oxyheptyl]-3-methisoxazole] | 50 µg/mL | 50 µg/mL | 50 µg/mL | 5 µg/mL (≈ 14.8 µM) | 10 µg/mL (≈ 29.5 µM) | 1 µg/mL (≈ 2.95 µM) | 10 µg/mL (≈ 29.5 µM) | 5 µg/mL (≈ 14.8 µM) | > 25 µg/mL | 5 µg/mL (≈ 14.8 µM) | 5 µg/mL (≈ 14.8 µM) | 0.5 µg/mL (≈ 1.48 µM) | 1 µg/mL (≈ 2.95 µM) | 10 µg/mL (≈ 29.5 µM) | 10 µg/mL (≈ 29.5 µM) | 1 µg/mL (≈ 2.95 µM) | 1 µg/mL (≈ 2.95 µM) | 10 µg/mL (≈ 29.5 µM) | 5 µg/mL (≈ 14.8 µM) | 5 µg/mL (≈ 14.8 µM) | EC50 (Rhinovirus 39; Table II, read-out: MIC 50 Rhinovirus Type 39): 5 µg/mL (≈ 14.8 µM); EC50 (Rhinovirus 63): 5 µg/mL (≈ 14.8 µM); EC50 (Rhinovirus 86): 5 µg/mL (≈ 14.8 µM); EC50 (Rhinovirus 88): < 0.5 µg/mL; EC50 (Polio 1): > 25 µg/mL; EC50 (Coxsacki-A9): > 25 µg/mL; IC50 (Coxsacki-A21): 10 µg/mL (≈ 29.5 µM); IC50 (Coxsacki-B1): > 25 µg/mL; IC50 (Coxsacki-B4): 10 µg/mL (≈ 29.5 µM); IC50 (Echo-7): > 25 µg/mL; IC50 (Echo-11): > 25 µg/mL; inhibitory activity against the members of the Entero virus family (Enterovirus serotypes): remarkable inhibitory activity; All Enterovirus Serotypes (number of serotypes active / tested) (Enterovirus serotypes): 2; inhibitory activity against HRV-1A and HRV-39 in vitro (HRV-1A and HRV-39): remarkably inhibitory activity; All Rhinovirus Serotypes (number of serotypes active / tested) [1]: 19
3 | Cc1csc(CCCCCCOc2ccc3oc4ccccc4c3c2)n1 [Compound 27] | 50 µg/mL | 50 µg/mL | 50 µg/mL | 10 µg/mL (≈ 27.4 µM) | 5 µg/mL (≈ 13.7 µM) | > 25 µg/mL | 25 µg/mL (≈ 68.4 µM) | 10 µg/mL (≈ 27.4 µM) | 10 µg/mL (≈ 27.4 µM) | 5 µg/mL (≈ 13.7 µM) | 25 µg/mL (≈ 68.4 µM) | 10 µg/mL (≈ 27.4 µM) | 10 µg/mL (≈ 27.4 µM) | 10 µg/mL (≈ 27.4 µM) | > 25 µg/mL | 10 µg/mL (≈ 27.4 µM) | 10 µg/mL (≈ 27.4 µM) | > 25 µg/mL | 10 µg/mL (≈ 27.4 µM) | 5 µg/mL (≈ 13.7 µM) | EC50 (Rhinovirus 63): 25 µg/mL (≈ 68.4 µM); EC50 (Rhinovirus 86): 1 µg/mL (≈ 2.74 µM); EC50 (Rhinovirus 88): > 25 µg/mL; EC50 (Polio 1): > 25 µg/mL; EC50 (Coxsacki-A9): 5 µg/mL (≈ 13.7 µM); IC50 (Coxsacki-A21): 10 µg/mL (≈ 27.4 µM); IC50 (Coxsacki-B1): 10 µg/mL (≈ 27.4 µM); IC50 (Coxsacki-B4): > 25 µg/mL; IC50 (Echo-7): > 25 µg/mL; IC50 (Echo-11): > 25 µg/mL; inhibitory activity against the members of the Entero virus family (Enterovirus serotypes): remarkable inhibitory activity; All Enterovirus Serotypes (number of serotypes active / tested) (Enterovirus serotypes): 3; All Rhinovirus Serotypes (number of serotypes active / tested) [1]: 17
